In patent US12338199B2, “Bis-octahydrophenanthrene carboxamides and protein conjugates thereof” (REGENERON PHARMACEUTICALS, INC., priority 2017, dated 2025):
Values joined by “and” are separate entries in the source; they are usually repeats but may differ in a detail not shown here. Identical values can stand only once. Like-named read-outs stand apart in the source and are kept apart here.

Columns and labels:
ABCG1 = ABCG1 mRNA induction in differentiated THP-1 macrophages (TaqMan); type: cell-based, human; details: THP1 macrophages, 24-hour treatment; magnitude in words
Protocol: (§1) To determine the ability of LXR agonists to activate ABCA1 and ABCG1 genes, the mRNA levels of these two genes in differentiated macrophages was measured. […] Cells were differentiated into macrophages by treatment with 100 nM Phorbol-12 myristate 13-acetate (Sigma, # P8139), which was added to the media described above, for 72 hours. […] Chloroform was then used for phase separation. The aqueous phase, containing total RNA, was purified using MagMAX™-96 for Microarrays Total RNA Isolation Kit (Ambion, Cat # AM1830) and reverse-transcribed into cDNA using SuperScript® VILO™ Master Mix (Invitrogen, Cat #11755050) as per the manufacturer's instructions. TaqMan® was performed using Gene Expression Master Mix, the ABI 7900HT Sequence Detection System (Applied Biosystems) and the primers and probes indicated below in Table 9. The GAPDH gene was used as the internal control gene to normalize any cDNA input differences.

THP-1 cells = assay: BODIPY-cholesterol efflux in THP-1 macrophages; type: cell-based, human; details: for EC50: Homo sapiens, THP-1
Protocol: The ability of anti-MSR1 antibody-LXR conjugates to activate cholesterol efflux in a human macrophage cell line (THP-1; ATCC Catalog # TIB-202), was assessed using a fluorescent cholesterol analog.
Cells were differentiated into macrophages by addition of 100 nM Phorbol-12 myristate 13-acetate (Sigma, Catalog #P 8139) to the media and subjected to further incubation for 96 hours.
Percentage of BODIPY-cholesterol efflux was calculated using the following formula: [fluorescence in acceptor media/(fluorescence in acceptor media+fluorescence in cell lysate)]×100. Table 15 provides activated cholesterol efflux for the tested articles, and FIG. 15 illustrates the data in graph form.

LXR alpha = molecular target: T1, LXR alpha (Homo sapiens, UniProt Q13133); assay: LanthaScreen TR-FRET LXR alpha Coactivator Assay (cell-free binding); details: TR-FRET, 12-point curve; read-out: Cell free binding LXRα IC50
T1 construct: LXR alpha or beta LBD-GST; purchased ThermoFisher PV4655
T1 sequence (Q13133 209-447 limits assumed): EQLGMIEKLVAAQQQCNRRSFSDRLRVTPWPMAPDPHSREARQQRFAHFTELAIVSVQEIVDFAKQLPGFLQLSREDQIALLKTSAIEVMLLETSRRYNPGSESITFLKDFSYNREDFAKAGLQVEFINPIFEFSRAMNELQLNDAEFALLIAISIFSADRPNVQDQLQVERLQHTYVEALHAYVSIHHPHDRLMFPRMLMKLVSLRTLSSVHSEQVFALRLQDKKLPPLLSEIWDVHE

ABCA1 = ABCA1 mRNA induction in differentiated THP-1 macrophages (TaqMan); type: cell-based, human; details: THP1 macrophages, 24-hour treatment; magnitude in words
Protocol: as §1

C[C@]1(C(=O)NC(=O)[C@@]2(C)CCC[C@]3(C)c4cc(O)ccc4CC[C@@H]23)CCC[C@]2(C)c3cc(N)ccc3CC[C@@H]12 [Compound 9d, (1S,4aS,10aR)—N-[(1S,4aS,10aR)-6-Amino-1,4a-dimethyl-1,2,3,4,4a,9,10,10a-octahydrophenanthrene-1-carbonyl]-6-hydroxy-1,4a-dimethyl-1,2,3,4,4a,9,10,10a-octahydrophenanthrene-1-carboxamide]
ABCG1 induction EC50 (ABCG1): sub-picomolar | Maximum efflux (%) (THP-1 cells; 24-hour treatment, BODIPY-cholesterol efflux): 36.6% and 36.7% | EC50 (THP-1 cells; 24-hour treatment, read-out: Cholesterol Efflux activation EC50): 0.15 nM | EC50 (THP-1 cells; after 24 hours, read-out: Cholesterol efflux EC50): 0.15 nM | IC50 (LXR alpha): < 10 nM | ABCA1 induction EC50 (ABCA1): sub-picomolar
